Starred links: 1 amine or outer side, 2 acyl side, 3 side chain; linkers in the order of their positions; H or OH if unused. Positions of bridges follow the written chain, without caps; N, C: chain ends. Non-standard residues stand in square brackets, D forms with d. Residues, ends and D or L forms follow the SMILES beside them. Groups on a side chain read outwards from the residue. ξ: configuration not given here. *: point of attachment. NH(Fluorescein-5-yl) = O=C1OC2(c3ccc(O)cc3Oc3cc(O)ccc32)c2ccc(N*)cc21; Tyr(3-I) = N[C@@H](Cc1ccc(O)c(I)c1)C(=O)O; Mca = COc1ccc2c(CC(=O)*)cc(=O)oc2c1; Hyp = O=C(O)[C@@H]1C[C@@H](O)CN1; Ile(3ξ) = CCC(C)[C@H](N)C(=O)O; CO = O=C([*:1])[*:2]; Ahx = NCCCCCC(=O)O; βAla = NCCC(=O)O
These molecules were tested against T1, DD(E) fragment of fibrin (Homo sapiens, UniProt P02671+P02675+P02679, DEL433-453) (assay: Dissociation constant (Kd) of optical agent for DD(E) fragment of fibrin). Settings: 24° C.; read-out: Kd (μM) vs. DD(E) @ 24° C.
T1 construct: complex of the crosslinked D domains of adjacent fibrin monomers with the central E domain of fibrin
Type: binding
From the text: Optical agents of the invention include an OD and a FBM covalently bound to each other, either directly or via a linker (OD-L-FBM). The FBM can be a small molecule or a peptide. As used herein, the term “peptide” refers to a chain of amino acids that is about 2 to about 75 amino acids in length (e.g., 3 to 50 amino acids). Affinity of a peptide for fibrin can be expressed in terms of its dissociation constant (Kd), which is the equilibrium constant for the dissociation reaction of the peptide from the DD(E) fragment of fibrin. The term “DD(E) fragment of fibrin” refers to a fibrin subcomponent generated by proteolytic degradation of fibrin with plasmin or trypsin. The DD(E) fragment is a complex of the crosslinked D domains of adjacent fibrin monomers with the central E domain of fibrin (See, for example, Spraggon et al., Nature 389:455462 (1997)). Since DD(E) is a product resulting from the proteolysis of fibrin, one of skill in the art will understand that there may be some slight heterogeneity in its composition. The DD(E) fragment can be biotinylated and immobilized via avidin to a solid substrate (e.g., a multi-well plate). Peptides can be incubated with the immobilized DD(E) fragment in a suitable buffer and binding detected using known methodology. Methods for determining the dissociation constant of the peptide for DD(E) are set forth in WO 01/09188.
As a result of the FBM having affinity for fibrin, the optical agent also has affinity for fibrin. The term “affinity” refers to the capacity of the optical agent to be taken up by, retained by, or bound to the fibrin in the lesion. The affinity of an optical agent can be expressed in terms of its Kd, which is the equilibrium constant for the dissociation reaction of the optical agent from fibrin, and determined as discussed above for the peptide. The dissociation constant of the optical agent for DD(E) can have a value less than about 10 μM (e.g., 0.1 μM to 10 μM). In one embodiment, the dissociation constant value is less than about 5 μM. In another embodiment, the dissociation constant value is less than about 1 μM. The dissociation constant also may have a value less than about 0.3 μM (e.g., 0.2 μM).
In the methods of the present invention, the optical agent forms a fibrin-optical agent complex at the site of the lesion. The ability of the optical agent to form a fibrin-optical agent complex may be measured by examining the optical agent's dissociation constant (Kd) for a DD(E) fragment of fibrin as discussed above.

T1 sequence (P02671 130-216 limits assumed, stated change not applied): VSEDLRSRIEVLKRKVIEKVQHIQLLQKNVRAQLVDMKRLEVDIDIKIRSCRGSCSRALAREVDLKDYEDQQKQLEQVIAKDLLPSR
T1 sequence (P02671 36-97 limits assumed, stated change not applied): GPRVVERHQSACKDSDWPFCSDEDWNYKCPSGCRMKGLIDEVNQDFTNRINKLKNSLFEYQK
T1 sequence (P02675 164-491 limits assumed, stated change not applied): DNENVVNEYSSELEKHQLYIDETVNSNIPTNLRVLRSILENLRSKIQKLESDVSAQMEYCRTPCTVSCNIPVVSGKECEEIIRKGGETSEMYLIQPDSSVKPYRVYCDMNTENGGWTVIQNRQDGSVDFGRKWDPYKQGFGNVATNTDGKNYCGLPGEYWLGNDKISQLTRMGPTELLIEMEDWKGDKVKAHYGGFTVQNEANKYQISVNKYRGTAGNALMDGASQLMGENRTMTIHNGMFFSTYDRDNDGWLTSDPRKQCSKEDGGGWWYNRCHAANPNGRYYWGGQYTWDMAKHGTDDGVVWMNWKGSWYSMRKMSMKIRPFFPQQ
T1 sequence (P02675 45-152 limits assumed, stated change not applied): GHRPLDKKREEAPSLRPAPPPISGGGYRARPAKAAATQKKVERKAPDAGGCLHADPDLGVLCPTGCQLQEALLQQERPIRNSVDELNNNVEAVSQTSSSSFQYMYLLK
T1 sequence (P02679 114-432 limits assumed, stated change not applied): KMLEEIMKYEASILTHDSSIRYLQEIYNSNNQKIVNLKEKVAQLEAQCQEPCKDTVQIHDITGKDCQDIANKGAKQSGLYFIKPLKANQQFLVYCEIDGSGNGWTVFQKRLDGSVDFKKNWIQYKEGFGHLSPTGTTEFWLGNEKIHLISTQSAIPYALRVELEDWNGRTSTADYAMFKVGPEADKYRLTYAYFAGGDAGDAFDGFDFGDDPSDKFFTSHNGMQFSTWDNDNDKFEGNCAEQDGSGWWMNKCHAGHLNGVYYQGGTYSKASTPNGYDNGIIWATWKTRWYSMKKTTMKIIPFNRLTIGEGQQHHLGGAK
T1 sequence (P02679 27-88 limits assumed, stated change not applied): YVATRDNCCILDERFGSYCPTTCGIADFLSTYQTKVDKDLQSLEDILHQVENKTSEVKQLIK

SMILES	Kd
CC[C@H](C)[C@H](NC(=O)[C@H](Cc1c[nH]cn1)NC(=O)[C@@H]1CSSC[C@H](NC(=O)[C@H](Cc2c[nH]cn2)NC(=O)[C@H](Cc2ccccc2)NC(=O)CNC(=O)CCCCCNC(=O)Nc2ccc3c(c2)C(=O)OC32c3ccc(O)cc3Oc3cc(O)ccc32)C(=O)N2C[C@H](O)C[C@H]2C(=O)N[C@@H](Cc2ccc(O)c(I)c2)C(=O)N[C@@H](CC(=O)O)C(=O)N[C@@H](CC(C)C)C(=O)N1)C(=O)N[C@@H](CC(C)C)C(N)=O [Structure III] ({NH(Fluorescein-5-yl)-CO-Ahx}-GFHC[Hyp][Tyr(3-I)]DLCHIL-NH2; disulfide 4-9)	0.1 µM
CC[C@H](C)[C@H](NC(=O)[C@H](Cc1c[nH]cn1)NC(=O)[C@@H]1CSSC[C@H](NC(=O)[C@H](Cc2c[nH]cn2)NC(=O)[C@H](Cc2ccccc2)NC(=O)[C@H](Cc2c[nH]c3ccccc23)NC(=O)CCCCCNC(=O)Nc2ccc3c(c2)C(=O)OC32c3ccc(O)cc3Oc3cc(O)ccc32)C(=O)N2C[C@H](O)C[C@H]2C(=O)N[C@@H](Cc2ccc(O)c(I)c2)C(=O)N[C@@H](CC(=O)O)C(=O)N[C@@H](CC(C)C)C(=O)N1)C(=O)N[C@@H](CC(C)C)C(N)=O [Structure IV] ({NH(Fluorescein-5-yl)-CO-Ahx}-WFHC[Hyp][Tyr(3-I)]DLCHIL-NH2; disulfide 4-9)	0.06 µM
CC[C@H](C)[C@H](NC(=O)[C@H](Cc1c[nH]cn1)NC(=O)[C@@H]1CSSC[C@H](NC(=O)[C@H](Cc2c[nH]cn2)NC(=O)[C@H](Cc2ccccc2)NC(=O)CNC(=O)CNC(=O)[C@@H](N)CCCCNC(=O)Nc2ccc3c(c2)C(=O)OC32c3ccc(O)cc3Oc3cc(O)ccc32)C(=O)N2C[C@H](O)C[C@H]2C(=O)N[C@@H](Cc2ccc(O)c(I)c2)C(=O)N[C@@H](CC(=O)O)C(=O)N[C@@H](CC(C)C)C(=O)N1)C(=O)N[C@@H](CC(C)C)C(N)=O [Structure IX] (H-K([CO-NH(Fluorescein-5-yl)])GGFHC[Hyp][Tyr(3-I)]DLCHIL-NH2; disulfide 6-11)	0.1 µM
CC[C@H](C)[C@H](NC(=O)[C@H](Cc1c[nH]cn1)NC(=O)[C@@H]1CSSC[C@H](NC(=O)[C@H](Cc2c[nH]cn2)NC(=O)[C@H](Cc2ccccc2)NC(=O)CNC(=O)CNC(=O)CCCCCNC(=O)Nc2ccc3c(c2)C(=O)OC32c3ccc(O)cc3Oc3cc(O)ccc32)C(=O)N2C[C@H](O)C[C@H]2C(=O)N[C@@H](Cc2ccc(O)c(I)c2)C(=O)N[C@@H](CC(=O)O)C(=O)N[C@@H](CC(C)C)C(=O)N1)C(=O)N[C@@H](CC(C)C)C(N)=O [Structure V] ({NH(Fluorescein-5-yl)-CO-Ahx}-GGFHC[Hyp][Tyr(3-I)]DLCHIL-NH2; disulfide 5-10)	0.09 µM
CC[C@H](C)[C@H](NC(=O)[C@H](Cc1c[nH]cn1)NC(=O)[C@@H]1CSSC[C@H](NC(=O)[C@H](Cc2c[nH]cn2)NC(=O)[C@H](Cc2ccccc2)NC(=O)CCNC(=O)Nc2ccc3c(c2)C(=O)OC32c3ccc(O)cc3Oc3cc(O)ccc32)C(=O)N2C[C@H](O)C[C@H]2C(=O)N[C@@H](Cc2ccc(O)c(I)c2)C(=O)N[C@@H](CC(=O)O)C(=O)N[C@@H](CC(C)C)C(=O)N1)C(=O)N[C@@H](CC(C)C)C(N)=O [Structure I] ({NH(Fluorescein-5-yl)-CO-βAla}-FHC[Hyp][Tyr(3-I)]DLCHIL-NH2; disulfide 3-8)	0.1 µM
CC[C@H](C)[C@H](NC(=O)[C@H](Cc1c[nH]cn1)NC(=O)[C@@H]1CSSC[C@H](NC(=O)[C@H](Cc2c[nH]cn2)NC(=O)[C@H](Cc2ccccc2)NC(=O)CCCCCNC(=O)Nc2ccc3c(c2)C(=O)OC32c3ccc(O)cc3Oc3cc(O)ccc32)C(=O)N2C[C@H](O)C[C@H]2C(=O)N[C@@H](Cc2ccc(O)c(I)c2)C(=O)N[C@@H](CC(=O)O)C(=O)N[C@@H](CC(C)C)C(=O)N1)C(=O)N[C@@H](CC(C)C)C(N)=O [Structure II] ({NH(Fluorescein-5-yl)-CO-Ahx}-FHC[Hyp][Tyr(3-I)]DLCHIL-NH2; disulfide 3-8)	0.1 µM

Same assay, conditions: read-out: Kd vs. DD(E)

Kd	SMILES
6.6 µM	COc1ccc2c(CC(=O)NCCCCCC(=O)N[C@@H](CC(C)C)C(=O)N3CCC[C@H]3C(=O)N[C@H]3CSSC[C@@H](C(=O)N[C@@H](CC(C)C)C(=O)N[C@@H](CC(=O)O)C(N)=O)NC(=O)[C@H](C(C)O)NC(=O)CNC(=O)[C@H](Cc4ccc(O)cc4)NC(=O)[C@H](Cc4ccc(O)cc4)NC(=O)[C@H](CC(=O)O)NC3=O)cc(=O)oc2c1 (some centres unmarked) [Structure XII]
0.2 µM	CCC(C)[C@H](NC(=O)[C@H](Cc1c[nH]c2ccccc12)NC(=O)[C@@H]1CSSC[C@H](NC(=O)[C@H](CCC(=O)O)NC(=O)[C@H](Cc2c[nH]c3ccccc23)NC(=O)[C@@H](CCC(N)=O)NC(=O)CCCCCNC(=O)Cc2cc(=O)oc3cc(OC)ccc23)C(=O)N2CCC[C@H]2C(=O)N[C@@H](Cc2ccc(O)cc2)C(=O)NCC(=O)N[C@@H](CC(C)C)C(=O)N1)C(=O)N[C@@H](CCC(N)=O)C(N)=O (some centres unmarked) [Structure XIII] ({Mca-Ahx}-[dQ]WECPYGLCW[Ile(3ξ)]Q-NH2; disulfide 4-9)

Source: patent US20060148683A1, “Detection and treatment of intravascular lesions” (priority 2001, published 2006)
